Data: patent publication US6890736B1, “Methods for producing proteins in cultured cells” (Immunex Corporation, priority 2002, dated 2005)
Where “and” joins values, the source holds several entries; their conditions need not be identical. Equal entries are not always repeated.

What was measured:
[1] = tested on: cell line 25H9 (CHO cells that produce IL-1R-II protein); assay: Example 1: induction of IL-1R-II production (ELISA titer, productivity) at 31° C. or 34° C.; assay type: cell-based, Chinese hamster
Procedure: The following experiment was designed to test whether decitabine can induce the production of a protein, in this case a recombinant soluble form of the human interleukin 1 receptor type II (IL-1-R-II), at either 31° C. or 34° C. Soluble versions of IL-1R-II and methods for producing it are described in U.S. Pat. No. 5,767,064. DNA encoding a soluble form of the human IL-1R-II was inserted into pG3.6, which is described in Morris et al. ((1998), Cytotechnology 28:9-17). This construct was used to transfect CHO cells to produce cell lines, including 25H9, that produce IL-1R-II protein.
(§1) About 2×10^6 cells of cell line 25H9 were inoculated into 30 milliliters of serum-free medium and incubated at the temperatures indicated in Table 1 in vented shake flasks. At the times indicated in Table 1, samples were taken from each flask to determine IL-1R-II titer, cell number, and cell viability. IL-1R-II protein titer was determined by ELISA assay. Cell number was determined by counting cells in a hemocytometer. Cell viability was determined by trypan blue staining and counting stained cells in a hemocytometer. Cumulative viable cell density (CVCD) is the area under the curve of a plot of the viable cell density versus time (in units of cells/ml/day). Productivity (pg of IL-1R-II/cell/day) was determined by dividing the protein titer on a particular day by the CVCD on the same day. Cells were fed with amino acids on days 2 and 5, and dextrose was added periodically in order to maintain levels above 2.0 g/L. All samples were done in duplicate, and the data shown is an average value.

[2] = tested on: cell line 25H9 (CHO cells); assay: Example 3: cell number (Guava PCA Cytometer); assay type: cell-based, Chinese hamster; conditions: 31° C., 10 μM
Procedure: as §1
The following experiment compares the effects of 5-bromo-2′-deoxycytidine 5′-monophosphate and 5-aza-2′-deoxycytidine on induction of protein production. The experiment was done as described in Example 1 with the following exceptions. All cultures were incubated at 31° C., and cell number and viability were determined using a Guava PCA Cytometer (available from Guava Technologies, Hayward, Calif., USA). Samples were done in triplicate.

[3] = 31° C., 1 μM decitabine, day 10
[4] = 31° C., 5 μM decitabine, day 10
[5] = 31° C., 10 μM decitabine, day 3
[6] = 31° C., 10 μM decitabine, day 5
[7] = 31° C., 10 μM decitabine, day 7
[8] = 31° C., 10 μM decitabine, day 10
[9] = 34° C., 10 μM decitabine, day 3
[10] = 34° C., 10 μM decitabine, day 5
[11] = 34° C., 10 μM decitabine, day 7

For `Nc1ncn([C@H]2C[C@H](O)[C@@H](CO)O2)c(=O)n1` [decitabine, 5-aza-2′-deoxycytidine], the “IL-1R-II Titer” value ([1]; 31° C., 1 μM decitabine, day 0) was 0.0 µg/mL, the “IL-1R-II Titer” value ([1]; 31° C., 1 μM decitabine, day 3) was 62.6 µg/mL and the Productivity ([1]; 31° C., 1 μM decitabine, day 3) was 7.5 pg IL-1R-II/cell/day. The “IL-1R-II Titer” value ([1]; 31° C., 1 μM decitabine, day 5) was 132.0 µg/mL, the Productivity ([1]; 31° C., 1 μM decitabine, day 5) was 7.8 pg IL-1R-II/cell/day and the “IL-1R-II Titer” value ([1]; 31° C., 1 μM decitabine, day 7) was 216.5 µg/mL. For the same molecule, the Productivity ([1]; 31° C., 1 μM decitabine, day 7) was 7.8 pg IL-1R-II/cell/day, the “IL-1R-II Titer” value [1, 3] was 330.5 µg/mL and the Productivity [1, 3] was 7.5 pg IL-1R-II/cell/day. For the same molecule, the “IL-1R-II Titer” value ([1]; 31° C., 5 μM decitabine, day 0) was 0.0 µg/mL, the “IL-1R-II Titer” value ([1]; 31° C., 5 μM decitabine, day 3) was 77.8 µg/mL and the Productivity ([1]; 31° C., 5 μM decitabine, day 3) was 9.2 pg IL-1R-II/cell/day. For the same molecule, the “IL-1R-II Titer” value ([1]; 31° C., 5 μM decitabine, day 5) was 123.5 µg/mL, the Productivity ([1]; 31° C., 5 μM decitabine, day 5) was 7.8 pg IL-1R-II/cell/day and the “IL-1R-II Titer” value ([1]; 31° C., 5 μM decitabine, day 7) was 210.5 µg/mL. The Productivity ([1]; 31° C., 5 μM decitabine, day 7) was 9.2 pg IL-1R-II/cell/day, the “IL-1R-II Titer” value [1, 4] was 351.0 µg/mL and the Productivity [1, 4] was 8.8 pg IL-1R-II/cell/day. For the same molecule, the “IL-1R-II titer relative to the titer observed at 31° C. with no inducer” value ([1]; 31° C., 10 μM decitabine) was 1.7 times, the “most effective concentration for IL-1R-II titer” value ([1]; 31° C., 10 μM decitabine among 1, 5, 10 μM) was “most effective concentration among those tested” and the “IL-1R-II Titer” value ([1]; 31° C., 10 μM decitabine, day 0) was 0.0 µg/mL. The “IL-1R-II Titer” value [1, 5] was 59.1 µg/mL, the Productivity [1, 5] was 8.0 pg IL-1R-II/cell/day and the “IL-1R-II Titer” value [1, 6] was 149.5 µg/mL. The Productivity [1, 6] was 10.4 pg IL-1R-II/cell/day, the “IL-1R-II Titer” value [1, 7] was 224.5 µg/mL and the Productivity [1, 7] was 10.4 pg IL-1R-II/cell/day. The “IL-1R-II Titer” value [1, 8] was 378 µg/mL and 378.0 µg/mL, the Productivity [1, 8] was 11.9 pg IL-1R-II/cell/day and the “IL-1R-II Titer” value ([1]; 34° C., 1 μM decitabine, day 0) was 0.0 µg/mL. The “IL-1R-II Titer” value ([1]; 34° C., 1 μM decitabine, day 3) was 65.4 µg/mL, the Productivity ([1]; 34° C., 1 μM decitabine, day 3) was 5.7 pg IL-1R-II/cell/day and the “IL-1R-II Titer” value ([1]; 34° C., 1 μM decitabine, day 5) was 143.5 µg/mL. For the same molecule, the Productivity ([1]; 34° C., 1 μM decitabine, day 5) was 5.6 pg IL-1R-II/cell/day, the “IL-1R-II Titer” value ([1]; 34° C., 1 μM decitabine, day 7) was 212.5 µg/mL and the Productivity ([1]; 34° C., 1 μM decitabine, day 7) was 5.1 pg IL-1R-II/cell/day. The “IL-1R-II Titer” value ([1]; 34° C., 1 μM decitabine, day 10) was 206.0 µg/mL, the “IL-1R-II Titer” value ([1]; 34° C., 5 μM decitabine, day 0) was 0.0 µg/mL and the “IL-1R-II Titer” value ([1]; 34° C., 5 μM decitabine, day 3) was 73.6 µg/mL. For the same molecule, the Productivity ([1]; 34° C., 5 μM decitabine, day 3) was 6.4 pg IL-1R-II/cell/day, the “IL-1R-II Titer” value ([1]; 34° C., 5 μM decitabine, day 5) was 156.5 µg/mL and the Productivity ([1]; 34° C., 5 μM decitabine, day 5) was 6.3 pg IL-1R-II/cell/day. The “IL-1R-II Titer” value ([1]; 34° C., 5 μM decitabine, day 7) was 218.5 µg/mL, the Productivity ([1]; 34° C., 5 μM decitabine, day 7) was 5.7 pg IL-1R-II/cell/day and the “IL-1R-II Titer” value ([1]; 34° C., 5 μM decitabine, day 10) was 307 µg/mL and 307.0 µg/mL. The “IL-1R-II Titer” value ([1]; 34° C., 10 μM decitabine, day 0) was 0.0 µg/mL, the “IL-1R-II Titer” value [1, 9] was 80.8 µg/mL and the Productivity [1, 9] was 8.3 pg IL-1R-II/cell/day. For the same molecule, the “IL-1R-II Titer” value [1, 10] was 151.5 µg/mL, the Productivity [1, 10] was 7.9 pg IL-1R-II/cell/day and the “IL-1R-II Titer” value [1, 11] was 203.5 µg/mL. The Productivity [1, 11] was 7.5 pg IL-1R-II/cell/day, the “IL-1R-II titers at 34° C. compared with 31° C.” value ([1]; all concentrations of decitabine at 34° C.) was “Lower IL-1R-II titers” and the “productivity on a per cell basis” value ([1]; at 7 and 10 days at all concentrations and temperatures tested) was “increased”. For the same molecule, the Viable Cell Density ([2]; day 0) was 2.4 cells/ml × 10^6, the Viable Cell Density ([2]; day 2) was 2.4 cells/ml × 10^6 and the Viable Cell Density ([2]; day 5) was 1.8 cells/ml × 10^6. It also gave a Viable Cell Density ([2]; day 7) of 1.1 cells/ml × 10^6 and a Viable Cell Density ([2]; day 9) of 0.9 cells/ml × 10^6.
